Measurements published in patent publication US20100197584A1, “USE OF CURCUMIN TO BLOCK BRAIN TUMOR FORMATION IN MICE” (Research Foundations of the City University of- New York, priority 2007, published 2010).

Legend:
[1] = test system: human glioma cells; details: human glioma cells in vitro (Karmakar 2006; Dhandapani 2007); cited from earlier work
[2] = test system: VEGF; test: Western blot of B16F10 cells, VEGF; assay type: cell-based, mouse; details: 50 μM
Method: (§1) B16F10 cells were cultured in 10-cm plates and then treated in duplicate with carrier or curcumin (50 μM). Following treatment for appropriate time periods, the cells were washed with PBS, lysed in RIPA buffer (PBS containing 1% Nonidet P40, 0.5% sodium deoxycholate, 0.1% SDS, 0.5 mM Na3VO4 plus freshly added PMSF and protease inhibitor cocktail; Boeringer-Roche), and then 20 μg of lysate protein (per lane) were analyzed by SDS-10% PAGE and Western blot analysis. Antibody concentrations used were: anti-phospho-NF-κB (1:1000) (Santa Cruz Biotechnology, Santa Cruz, Calif.), anti-phospho-Akt (1:5000) (Cell Signaling, CA), anti-cyclin D1 (1:1000) (Cell Signaling, CA), anti-BclXL (1:500) (Santa Cruz Biotechnology), anti-VEGF (1:500) (Santa Cruz Biotechnology), and anti-β-actin (1:1000) (Sigma, St. Louis, Mo.).

[3] = test system: B16F10 (mouse melanoma) cells; test: Cell viability assay using MTT, B16F10; assay type: cell-based; details: 25 μM and 50 μM, 48 h or 96 h, versus control cells (FIG. 6a)
Method: Cells. B16F10 (mouse melanoma), GL261 (mouse glioma), HOG (human oligodendroglioma), A549 (human lung cancer), and N18 (mouse neuroblastoma) cells were cultured separately in DMEM containing 10% (v/v) fetal bovine serum and 1% (v/v) penicillin-streptomycin (PS) and allowed to grow to 40% confluence in a 96-well plate.
Curcumin Treatment. Two hours before drug treatment, the medium in each well was replaced with 200 μl Neurobasal medium supplemented with 2% (v/v) B27 and 1% (v/v) PS (Drug-treatment Medium). A stock solution (40 mM) of curcumin was prepared in sterile dimethyl sulfoxide (DMSO) (Example 1). Through serial dilution of each stock solution in Drug-treatment Medium, the following concentrations were obtained: 20 μM and 50 μM (for caspase 3/7 assays) or 25 μM and 50 μM (for MTT assays). […] Additionally, the background absorbance was determined from parallel wells containing only the Drug-treatment Medium plus a particular concentration of the drug (no cells).
Cell Viability Assay Using MTT (3-(4,5-Dimethylthiazolyl-2)-2,5-Diphenyltetrazolium Bromide). […] Absorbance was measured at 570 nm using a 96-well multi scanner auto-reader with the extraction buffer used as blank. For curcumin samples, the absorbance obtained from the corresponding curcumin plus medium samples was subtracted.

[4] = test system: melanoma cell lines; details: melanoma cell lines (Siwak et al. 2005); cited from earlier work
[5] = test system: rat glioma cells; details: rat glioma cells in vitro (Karmakar 2006; Dhandapani 2007); cited from earlier work
[6] = test system: GL261 (mouse glioma) cells; test: Caspase-3/7 assay in GL261 cells; assay type: cell-based; details: 20 μM and 50 μM, 48 h (FIG. 4)
Method: (§2) Cells. B16F10 (mouse melanoma), GL261 (mouse glioma), HOG (human oligodendroglioma), A549 (human lung cancer), and […] (mouse neuroblastoma) cells were cultured separately in DMEM containing 10% (v/v) fetal bovine serum and 1% (v/v) penicillin-streptomycin (PS) and allowed to grow to 40% confluence in a 96-well plate. Curcumin Treatment. Two hours before drug treatment, the medium in each well was replaced with 200 μl Neurobasal medium supplemented with 2% (v/v) B27 and 1% (v/v) PS (Drug-treatment Medium). A stock solution (40 mM) of curcumin was prepared in sterile dimethyl sulfoxide (DMSO) (Example 1). Through serial dilution of each stock solution in Drug-treatment Medium, the following concentrations were obtained: 20 μM and 50 μM (for caspase 3/7 assays) or 25 μM and 50 μM (for MTT assays). Drug-treatment Medium in each well was aspirated, and a drug solution of each concentration or carrier-containing medium (control) was added to triplicate wells of cells (50 μl/well). […] Additionally, the background absorbance was determined from parallel wells containing only the Drug-treatment Medium plus a particular concentration of the drug (no cells). […] Fluorescence in each well was measured using the FLx 800 plate reader (Bio-Tek Instruments, Winooski, Vt.) set at 485/20 nm excitation and 528/20 nm emission wavelengths and the sensitivity of 70. […]

[7] = test system: cyclin D1; test: Western blot of B16F10 cells, cyclin D1; assay type: cell-based, mouse; details: 50 μM
Method: as §1

[8] = test system: A549 (human lung cancer) cells; test: Caspase-3/7 assay in A549 cells; assay type: cell-based; details: 20 μM and 50 μM, 48 h (FIG. 5)
Method: as §2

COc1cc(/C=C/C(=O)CC(=O)/C=C/c2ccc(O)c(OC)c2)ccc1O [curcumin]
apoptosis [1]: triggers apoptosis
VEGF (Western blot) [2]: suppressed
cell viability (MTT) [3]: dramatic decrease
apoptosis [4]: induces apoptosis
apoptosis [5]: triggers apoptosis
caspase-3/7 activity [6]: increased
cyclin D1 levels (Western blot) ([7]; active cell division (first 48 h)): decrease
cyclin D1 inhibition (Western blot) ([7]; subsequently, when cell division had slowed down): not observed
caspase-3/7 activity [8]: increased
